Source: ChEMBL document CHEMBL1201862, “PubChem BioAssay data set” (2004)
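The compound was tested at five concentrations on cells cultured in 96-well plates, with a 48-hour exposure period. GI50 is the concentration that inhibits growth by half.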 Activity calls are given as the source filed them. Rule as the data show it: active = GI50 up to about 1.1 µM and inactive = higher.

How the values were obtained:
Assay in all cases: growth of human tumour cells (NCI), 48 h
RXF 393 = test system: RXF 393
SF-268 = test system: SF-268
NCI/ADR-RES = test system: NCI/ADR-RES
Hs-578T = test system: Hs-578T
CAKI-1 = test system: CAKI-1
SK-MEL-5 = test system: SK-MEL-5
NCI-H460 = test system: NCI-H460
NCI-H23 = test system: NCI-H23
SK-OV-3 = test system: SK-OV-3
UACC-62 = test system: UACC-62
SK-MEL-2 = test system: SK-MEL-2
SF-295 = test system: SF-295
CCRF-CEM = test system: CCRF-CEM
IGROV-1 = test system: IGROV-1
RPMI-8226 = test system: RPMI-8226
NCI-H226 = test system: NCI-H226
SN12C = test system: SN12C
MDA-MB-435 = test system: MDA-MB-435
MDA-MB-231 = test system: MDA-MB-231

Row | SMILES | GI50 (RXF 393) | GI50 (SF-268) | GI50 (NCI/ADR-RES) | GI50 (Hs-578T) | GI50 (CAKI-1) | GI50 (SK-MEL-5) | GI50 (NCI-H460) | GI50 (NCI-H23) | GI50 (SK-OV-3) | GI50 (UACC-62) | GI50 (SK-MEL-2) | GI50 (SF-295) | GI50 (CCRF-CEM) | GI50 (IGROV-1) | GI50 (RPMI-8226) | GI50 (NCI-H226) | GI50 (SN12C) | GI50 (MDA-MB-435) | GI50 (MDA-MB-231)
1 | O=C(O)CC(Cc1ccccc1)C(=O)O (stereo unspecified) | > 100 µM (inactive) | > 100 µM (inactive) | > 100 µM (inactive) | 50.5 µM (inactive) | > 100 µM (inactive) | > 100 µM (inactive) | > 100 µM (inactive) | > 100 µM (inactive) | > 100 µM (inactive) | > 100 µM (inactive) | > 100 µM (inactive) | > 100 µM (inactive) | > 100 µM (inactive) | > 100 µM (inactive) | > 100 µM (inactive) | 50.4 µM (inactive) | 37.2 µM (inactive) | > 100 µM (inactive) | 
2 | COC(=O)c1onc(C2OC(C)(C)OC2C(O)COC(c2ccccc2)(c2ccccc2)c2ccccc2)c1C(=O)OC (stereo unspecified) | > 100 µM (inactive) | > 100 µM (inactive) |  | > 100 µM (inactive) |  | > 100 µM (inactive) |  | 72.3 µM (inactive) |  | 43.6 µM (inactive) | > 100 µM (inactive) |  | > 100 µM (inactive) |  | > 100 µM (inactive) | > 100 µM (inactive) | > 100 µM (inactive) | 89.5 µM (inactive) | 71.8 µM (inactive)
3 | N=C(N)C1CN(CCc2c[nH]cn2)C(=O)NC1=O (stereo unspecified) | > 100 µM (inactive) | > 100 µM (inactive) |  | > 100 µM (inactive) | > 100 µM (inactive) | > 100 µM (inactive) | > 100 µM (inactive) | > 100 µM (inactive) | > 100 µM (inactive) | > 100 µM (inactive) |  | > 100 µM (inactive) | > 100 µM (inactive) | > 100 µM (inactive) | > 100 µM (inactive) |  | > 100 µM (inactive) | > 100 µM (inactive) | 
4 | CCOP(=O)(/C=C\n1cnc2c(=O)n(C(C)=O)c(N)nc21)OCC | > 100 µM (inactive) |  | > 100 µM (inactive) |  | > 100 µM (inactive) | > 100 µM (inactive) | > 100 µM (inactive) | > 100 µM (inactive) | > 100 µM (inactive) | > 100 µM (inactive) |  | > 100 µM (inactive) | > 100 µM (inactive) | > 100 µM (inactive) | > 100 µM (inactive) | > 100 µM (inactive) | > 100 µM (inactive) | > 100 µM (inactive) | 69.7 µM (inactive)
5 | CC[C@H]1C=CCC[C@@]2(C[C@@H]3CC[C@H]4[C@H](C(=O)OCCCCCCCCCCCCCCCC(=O)N(CCCN)C[C@@H](O)CCN)[C@]5(CCC[C@@H](C)O5)NC(=[N+]34)N2)O1 | 1.6 µM (inactive) | 1.11 µM (active) | 1.63 µM (inactive) | 1.59 µM (inactive) | 0.532 µM (active) | 0.268 µM (active) | 0.52 µM (active) | 1.34 µM (inactive) | 1.65 µM (inactive) | 0.202 µM (active) | 0.53 µM (active) | 1.63 µM (inactive) |  | 0.615 µM (active) | 0.177 µM (active) | 1.04 µM (active) | 0.776 µM (active) | 0.338 µM (active) | 
6 | CCC1(COC(NC(=O)c2ccccc2)(C(F)(F)F)C(F)(F)F)COC1 | > 100 µM (inactive) | > 100 µM (inactive) | > 100 µM (inactive) | > 100 µM (inactive) | > 100 µM (inactive) | > 100 µM (inactive) |  | > 100 µM (inactive) | > 100 µM (inactive) |  | > 100 µM (inactive) |  | > 100 µM (inactive) | > 100 µM (inactive) | > 100 µM (inactive) |  | > 100 µM (inactive) | > 100 µM (inactive) | 
7 | NN/C(=N\S(=O)(=O)c1cc2ccccc2s1)Nc1ccc(Cl)cc1 | 15.5 µM (inactive) | 22.8 µM (inactive) | 20 µM (inactive) |  | 18.5 µM (inactive) | 17.9 µM (inactive) | 18.5 µM (inactive) | 20.3 µM (inactive) | 34.9 µM (inactive) | 17.5 µM (inactive) | 18.1 µM (inactive) | 19.9 µM (inactive) |  | 17.3 µM (inactive) | 16 µM (inactive) | 19.3 µM (inactive) | 22 µM (inactive) |  | 20.1 µM (inactive)
8 | CSc1nc(=S)[nH]c2c1c(C)nn2-c1ccccc1 | 26.2 µM (inactive) | 22.1 µM (inactive) |  | 38 µM (inactive) | 21.2 µM (inactive) | 13.1 µM (inactive) | 10.2 µM (inactive) | 17.6 µM (inactive) | 24.8 µM (inactive) | 14.5 µM (inactive) | 22.8 µM (inactive) | 22.9 µM (inactive) | 10.6 µM (inactive) |  | 6.73 µM (inactive) | 17.7 µM (inactive) | 21.1 µM (inactive) | 40.5 µM (inactive) | 22.2 µM (inactive)
9 | Clc1ccccc1-c1nnc2c(-c3ccccc3)nc3ccccc3n12 | 13 µM (inactive) | > 100 µM (inactive) | > 100 µM (inactive) |  |  | > 100 µM (inactive) | > 100 µM (inactive) | > 100 µM (inactive) | > 100 µM (inactive) | > 100 µM (inactive) | > 100 µM (inactive) |  | 26 µM (inactive) | > 100 µM (inactive) | > 100 µM (inactive) | > 100 µM (inactive) | > 100 µM (inactive) | 52.7 µM (inactive) | > 100 µM (inactive)
10 | COCOc1ccc(C(=O)C(C)c2ccc(OCOC)cc2OCOC)c(O)c1 (stereo unspecified) | 37.2 µM (inactive) | > 100 µM (inactive) |  |  | 52.1 µM (inactive) | 37 µM (inactive) | > 100 µM (inactive) | 60.8 µM (inactive) | > 100 µM (inactive) | > 100 µM (inactive) |  |  | 83.4 µM (inactive) | > 100 µM (inactive) | 71.1 µM (inactive) |  | > 100 µM (inactive) | 71.3 µM (inactive) | 
11 | Cc1nn(C)c2nc3ccc(Cl)cc3c(-c3ccccc3)c12 | > 100 µM (inactive) | > 100 µM (inactive) | > 100 µM (inactive) |  | > 100 µM (inactive) |  | > 100 µM (inactive) | > 100 µM (inactive) | > 100 µM (inactive) | > 100 µM (inactive) | > 100 µM (inactive) | > 100 µM (inactive) | > 100 µM (inactive) |  | > 100 µM (inactive) | > 100 µM (inactive) | > 100 µM (inactive) | > 100 µM (inactive) | > 100 µM (inactive)
12 | CC(C)N(C(=O)C12C3C4C1C1C2C3C41C(=O)C(C)(C)C)C(C)C (stereo unspecified) |  | > 100 µM (inactive) |  |  | > 100 µM (inactive) | 38.8 µM (inactive) |  | > 100 µM (inactive) | > 100 µM (inactive) | > 100 µM (inactive) | > 100 µM (inactive) | > 100 µM (inactive) | 16.1 µM (inactive) | > 100 µM (inactive) | 31.9 µM (inactive) |  | > 100 µM (inactive) |  | 
13 | CCOC(=O)c1nc2ccccc2nc1Nc1ccc(OC)c(OC)c1 |  | 27.3 µM (inactive) | > 100 µM (inactive) | 37.7 µM (inactive) | > 100 µM (inactive) | 63.7 µM (inactive) | > 100 µM (inactive) | > 100 µM (inactive) | > 100 µM (inactive) | > 100 µM (inactive) | > 100 µM (inactive) | > 100 µM (inactive) | > 100 µM (inactive) | > 100 µM (inactive) | > 100 µM (inactive) |  | > 100 µM (inactive) | > 100 µM (inactive) | > 100 µM (inactive)
14 | CN(C)CCNC(=O)c1ccc2nc3c(nc2c1)C(=O)c1ccccc1-3 | 85.5 µM (inactive) | 33.5 µM (inactive) |  | 52.2 µM (inactive) | > 100 µM (inactive) | 17.9 µM (inactive) | 18.5 µM (inactive) | 48.5 µM (inactive) | > 100 µM (inactive) | 46.5 µM (inactive) |  | 65.6 µM (inactive) | 9.75 µM (inactive) | 38.9 µM (inactive) | 26.1 µM (inactive) |  | 68.5 µM (inactive) | 26 µM (inactive) | 
15 | CCCCCC#CCOC(=O)C(=[N+]=[N-])P(=O)(c1ccccc1)c1ccccc1 | > 10 µM (inactive) | > 10 µM (inactive) |  | > 10 µM (inactive) |  | > 10 µM (inactive) | > 10 µM (inactive) | > 10 µM (inactive) | > 10 µM (inactive) | > 10 µM (inactive) |  | > 10 µM (inactive) |  | > 10 µM (inactive) | 9.84 µM (inactive) | > 10 µM (inactive) | > 10 µM (inactive) | > 10 µM (inactive) | > 10 µM (inactive)
16 | CC(=O)[C@H]1[C@H](O)C[C@@]2(C)[C@@H]3CCc4cc(O)c(OC5OC(CO)C(O)C(O)C5O)cc4C3(C)C(=O)C[C@]12C (stereo partly specified) | > 100 µM (inactive) | > 100 µM (inactive) | > 100 µM (inactive) |  | > 100 µM (inactive) | > 100 µM (inactive) | > 100 µM (inactive) | > 100 µM (inactive) | > 100 µM (inactive) | > 100 µM (inactive) | > 100 µM (inactive) | > 100 µM (inactive) | > 100 µM (inactive) | > 100 µM (inactive) |  | > 100 µM (inactive) | > 100 µM (inactive) | > 100 µM (inactive) | > 100 µM (inactive)
17 | C=C(C)[C@@H]1CC[C@@]2(C)[C@H]1[C@H]1CCC3[C@@]4(C)CC[C@H](O)C(C)(C)[C@@H]4CC[C@@]3(C)[C@]1(C)C[C@@H]2O (stereo partly specified) [CALENDULADIOL] | 25.9 µM (inactive) | 87.1 µM (inactive) | 56.9 µM (inactive) |  | 48.4 µM (inactive) | 19.1 µM (inactive) | 23 µM (inactive) | > 100 µM (inactive) |  |  |  | 23.7 µM (inactive) | 19.2 µM (inactive) | 60.3 µM (inactive) |  | > 100 µM (inactive) | 87.9 µM (inactive) | 23.1 µM (inactive) | 46.6 µM (inactive)
